Read-outs that look alike come from different tables or passages of the source.
Legend:
Human spleen cathepsin S = target: T1, Human spleen cathepsin S (Homo sapiens, UniProt P25774); assay: Cathepsin S assay, IC50 determination; assay type: biochemical
T1 construct: Human spleen cathepsin S (Calbiochem 219344, 40 ng/mL); purchased Calbiochem 219344; host or cells: human spleen
In short: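 Spleen cathepsin S (40 ng/mL) with 15 microM Z-Phe-Arg-AMC and liver cathepsin B (65 ng/mL) with 15 microM Z-Arg-Arg-AMC, in 20 mM sodium acetate, 1 mM EDTA, 5 mM cysteine, pH 5.5. AMC fluorescence release monitored; IC50 measured in triplicate.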

[1] = target: T2, Papain from Carica papaya (Carica papaya, UniProt P00784); assay: Selectivity assay, papain; assay type: biochemical; conditions: for IC50: Papain, no preincubation
T2 construct: Papain from Carica papaya (Calbiochem 5125, 11 ng/mL); purchased Calbiochem 5125; host or cells: Carica papaya
T2 sequence (P00784 134-345): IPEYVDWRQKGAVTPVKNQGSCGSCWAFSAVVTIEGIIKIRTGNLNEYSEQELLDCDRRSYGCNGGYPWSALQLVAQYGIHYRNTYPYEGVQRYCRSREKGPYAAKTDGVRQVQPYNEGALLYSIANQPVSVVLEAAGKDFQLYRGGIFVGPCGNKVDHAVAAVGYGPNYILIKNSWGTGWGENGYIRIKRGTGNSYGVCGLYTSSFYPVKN
Procedure: (§1) Compound No. 1 was assayed for inhibition against papain and cathepsins B, G, K, S, and V. Papain from Carica papaya (Calbiochem 5125, 11 ng/mL), human cathepsin K (Calbiochem 342001, 35 ng/mL), human spleen cathepsin S (Calbiochem 219344, 40 ng/mL), and human cathepsin V (Calbiochem 219467, 39 ng/ml) were assayed using Z-Phe-Arg-AMC substrate at 20 μM, 20 μM, 15 μM, and 1 μM, respectively. Human liver cathepsin B (Calbiochem 219362, 65 ng/mL) was assayed using 15 μM Z-Arg-Arg-AMC substrate (Bachem I-1135). Human neutrophil cathepsin G (Calbiochem 219373, 4.2 μg/mL) was assayed using 15 μM Suc-Ala-Ala-Pro-Phe-AMC substrate (Sigma S9761). All reactions were performed in 20 mM sodium acetate buffer containing 5 mM cysteine and 1 mM EDTA, pH 5.5. Reaction progress was monitored using the Envision microplate reader. IC50 values were measured in triplicate.

human cathepsin K = target: T3, human cathepsin K (Homo sapiens, UniProt P43235); assay: Selectivity assay, cathepsin K; assay type: biochemical
T3 construct: purchased Calbiochem 342001
T3 sequence (P43235 115-329): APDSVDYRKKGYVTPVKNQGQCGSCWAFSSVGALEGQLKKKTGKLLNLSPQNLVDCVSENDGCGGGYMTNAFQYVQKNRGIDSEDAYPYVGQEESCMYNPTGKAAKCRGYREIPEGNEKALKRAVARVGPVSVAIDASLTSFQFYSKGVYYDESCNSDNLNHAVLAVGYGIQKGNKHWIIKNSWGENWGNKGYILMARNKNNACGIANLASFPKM
Procedure: as §1

Plasmodium falciparum = assay: Malaria assay, in vitro propagation; assay type: cell-based; conditions: read-out: IC50 against Plasmodium falciparum
Procedure: Eight two-fold serial dilutions of Compound No. 1 in RPMI 1640 media (Invitrogen 1 1 875) containing L-Glutamine, 50 mg/L hypoxanthine, 6 g/L HEPES, 0.5% Albumax 11 bovine serum (Invitrogen 11021), 0.225% sodium bicarbonate, and 1 pgIrnL gentamicin were performed in Corning 3704 microplates. […] In addition, 30 μL normal red blood cells and 30 μL infected red blood cells were added to two control columns containing 10 μL media. The plates were incubated at 37° C. in a 92% humidity chamber with 5% CO2, 5% O2, and 90% N2 for 48 hours to allow for two cycles of red blood cell rupture and invasion to take place. Forty μL BrightGlo™ (Promega E2610) were added to each well and centrifuged. After 5 minutes, luminescence was measured using the Envision microplate reader.

human cathepsin L [2] = target: T4, human cathepsin L (Homo sapiens, UniProt P07711); assay: Nonlinear regression of transient kinetics (data fitting)
T4 sequence (P07711 114-288 limits assumed): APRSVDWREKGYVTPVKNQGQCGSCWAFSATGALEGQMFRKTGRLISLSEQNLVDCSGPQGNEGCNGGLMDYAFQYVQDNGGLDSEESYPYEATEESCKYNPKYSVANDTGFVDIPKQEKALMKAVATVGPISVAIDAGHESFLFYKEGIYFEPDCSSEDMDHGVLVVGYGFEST
T4 sequence (P07711 292-333 limits assumed): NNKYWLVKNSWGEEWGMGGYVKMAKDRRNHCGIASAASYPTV

human cathepsin L [3] = target: T4, human cathepsin L; assay: Preincubation studies, cathepsin L; assay type: biochemical; parameters: 8.7 ng/mL human liver cathepsin L (Calbiochem 219402); purchased Calbiochem 219402; host or cells: human liver
Procedure: To establish the time-dependent mechanism of inhibition, enzyme and inhibitor were preincubated for various time points in a 96-well microplate prior to the addition of substrate to initiate the enzymatic reaction. 47.5 μL of cathepsin L (18.3 ng/mL) and 47.5 μL of Compound No. 1 at various concentrations in assay buffer were incubated up to 4 hours. Five μL of Z-Phe-Arg-AMC substrate were then added and the plate was monitored for AMC hydrolysis on the Envision fluorescent microplate reader.

T1 sequence (P25774 115-331): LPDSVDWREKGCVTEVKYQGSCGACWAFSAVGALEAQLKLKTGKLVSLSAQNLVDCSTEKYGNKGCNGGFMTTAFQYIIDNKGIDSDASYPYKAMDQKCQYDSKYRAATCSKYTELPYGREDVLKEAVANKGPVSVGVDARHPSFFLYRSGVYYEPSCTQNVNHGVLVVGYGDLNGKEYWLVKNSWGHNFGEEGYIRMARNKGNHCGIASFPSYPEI

For `CCc1ccccc1NC(=O)CSC(=O)NNC(=O)[C@H](Cc1c[nH]c2ccccc12)NC(=O)OC(C)(C)C` [Compound No. 1], the “Selectivity Index @ 10 min” value (Human spleen cathepsin S; Cathepsin S vs cathepsin L, 10 min) was 7, the “Selectivity Index @ 30 min” value (Human spleen cathepsin S; Cathepsin S vs cathepsin L, 30 min) was 10 and the “Selectivity Index @ 60 min” value (Human spleen cathepsin S; Cathepsin S vs cathepsin L, 60 min) was 13. For the same compound, the “Selectivity Index @ 90 min” value (Human spleen cathepsin S; Cathepsin S vs cathepsin L, 90 min) was 14, the “Selectivity Index” value (Human spleen cathepsin S; Cathepsin S vs cathepsin L, over 10-90 min) was 7-14 and the IC50 (Human spleen cathepsin S; Cathepsin S, no preincubation, 30 min, read-out: IC50 @ 30 min) was 745 ± 10 nM. For the same compound, the IC50 (Human spleen cathepsin S; Cathepsin S, no preincubation, 60 min, read-out: IC50 @ 60 min) was 724 ± 11 nM, the IC50 (Human spleen cathepsin S; Cathepsin S, no preincubation, 90 min, read-out: IC50 @ 90 min) was 721 ± 29 nM and the IC50 (Human spleen cathepsin S; IC50 @ 10 min, Cathepsin S, human spleen, no preincubation, 10 min) was 1110 ± 134 nM. For the same compound, the IC50 (Human spleen cathepsin S; Table 1, read-out: IC50 Cat S) was 960 nM, the IC50 ([1]; IC50 @ 10 min, Carica papaya, 10 min) was 6760 ± 367 nM and the “Selectivity Index @ 10 min” value ([1]; Papain vs cathepsin L, 10 min) was 44. For the same compound, the “Selectivity Index @ 30 min” value ([1]; Papain vs cathepsin L, 30 min) was 40, the “Selectivity Index @ 60 min” value ([1]; Papain vs cathepsin L, 60 min) was 46 and the “Selectivity Index @ 90 min” value ([1]; Papain vs cathepsin L, 90 min) was 31. For the same compound, the “Selectivity Index” value ([1]; Papain vs cathepsin L, over 10-90 min) was 31-46, the IC50 ([1]; 30 min, read-out: IC50 @ 30 min) was 2980 ± 282 nM and the IC50 ([1]; 60 min, read-out: IC50 @ 60 min) was 2600 ± 208 nM. For the same compound, the IC50 ([1]; 90 min, read-out: IC50 @ 90 min) was 1560 ± 314 nM, the IC50 (human cathepsin K) was 17600 ± 1040 nM and the “Selectivity Index @ 10 min” value (human cathepsin K; Cathepsin K vs cathepsin L, 10 min) was 114. The “Selectivity Index @ 30 min” value (human cathepsin K; Cathepsin K vs cathepsin L, 30 min) was 113, the “Selectivity Index @ 60 min” value (human cathepsin K; Cathepsin K vs cathepsin L, 60 min) was 151 and the “Selectivity Index @ 90 min” value (human cathepsin K; Cathepsin K vs cathepsin L, 90 min) was 137. The “Selectivity Index” value (human cathepsin K; Cathepsin K vs cathepsin L, over 10-90 min) was 113-151, the IC50 (human cathepsin K; Cathepsin K, no preincubation, 30 min, read-out: IC50 @ 30 min) was 8460 ± 366 nM and the IC50 (human cathepsin K; Cathepsin K, no preincubation, 60 min, read-out: IC50 @ 60 min) was 8440 ± 140 nM. The IC50 (human cathepsin K; Cathepsin K, no preincubation, 90 min, read-out: IC50 @ 90 min) was 6857 ± 63 nM, the IC50 (Plasmodium falciparum) was 15400 ± 600 nM and the Ki (human cathepsin L [2]) was 0.89 nM. For the same compound, the koff (human cathepsin L [2]) was 2.2e-05 s⁻¹, the kon (human cathepsin L [2]) was 24000 M⁻¹ s⁻¹ and the IC50 (human cathepsin L [3]; IC50 against human cathepsin L after 1 hour preincubation, preincubation with enzyme 1 h prior to substrate addition) was 7.5 ± 1 nM. It also gave an IC50 (human cathepsin L [3]; IC50 against human cathepsin L after 2 hours preincubation, preincubation with enzyme 2 h) of 4.2 ± 0.6 nM and an IC50 (human cathepsin L [3]; preincubation with enzyme 4 h, read-out: IC50 against human cathepsin L after 4 hours preincubation) of 1 ± 0.5 nM.
